In the NIST ThermoML archive (doi:10.1021/acs.jced.5b00259):

Assay: xn = mol fraction of the nth substance listed
Details: 100 kPa, Liquid

CC[NH+]=C(N(C)C)N(C)C.O=S(=O)([N-]S(=O)(=O)C(F)(F)F)C(F)(F)F + CCCO
Details	mass density, 293.15 K [kg/m3]	mass density, 298.15 K [kg/m3]	mass density, 303.15 K [kg/m3]	mass density, 308.15 K [kg/m3]	viscosity, 293.15 K [mPa·s]	viscosity, 298.15 K [mPa·s]	viscosity, 303.15 K [mPa·s]	viscosity, 308.15 K [mPa·s]
x1 = 0.1024	997.39	992.96	988.5	984.03	4.462	3.868	3.38	2.972
x1 = 0.2019	1114.71	1110.07	1105.48	1100.81	7.27	6.213	5.362	4.667
x1 = 0.2973	1192.09	1187.4	1182.67	1177.93	10.87	9.224	7.898	6.831
x1 = 0.4011	1252.75	1247.97	1243.16	1238.35	16.1	13.49	11.48	9.85
x1 = 0.4988	1295.36	1290.53	1285.7	1280.88	21.63	18.01	15.21	12.98
x1 = 0.5962	1328.36	1323.53	1318.7	–	28.19	23.23	19.43	–
x1 = 0.6997	1356.59	1351.73	1346.89	–	36.71	29.87	24.76	–
x1 = 0.7931	1377.81	1372.97	1368.14	–	45.87	37.15	30.48	–
x1 = 0.9014	1398.72	1393.86	1389.02	–	58.37	46.91	38.17	–
x1 = 1	1414.89	1410.03	1405.19	–	74.61	58.86	47.27	–
